Laboratory results taken from the supplement of paper PMC11061612.

Assays:
[1] = tested on: OVCAR-3 (Ovarian Carcinoma); assay: combination Emax (second highest fraction inhibited in the dose matrix, 72 h); higher = more inhibition; extreme values may be limits of the assay
In short: (§1)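 After 24 hours at 37°C and 5% CO2 in 1536-well plates, cells in DMEM/F12 or RPMI plus 10% FBS received two-drug dose matrices for 72 hours. Viability came from CellTiter-Glo 2.0 luminescence and was scaled as inhibition, anchored at 0 by vehicle wells and at 1 by blank wells. Combination Emax is taken as the second-highest inhibition in the matrix, and Bliss excess as the observed combination effect less EA + EB − EA·EB, with EA and EB the single-agent effects.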

[2] = tested on: NCI-H1341 (Small Cell Lung Carcinoma); assay: as above
In short: as §1

[3] = tested on: CL-11 (Colorectal Carcinoma); assay: as above
In short: as §1

[4] = tested on: OAW-28 (Ovarian Carcinoma); assay: as above
In short: as §1

[5] = tested on: C-33-A (Cervical Carcinoma); assay: as above
In short: as §1

[6] = tested on: CPC-N (Small Cell Lung Carcinoma); assay: as above
In short: as §1

[7] = tested on: SiHa (Cervical Carcinoma); assay: as above
In short: as §1

[8] = tested on: T84 (Colorectal Carcinoma); assay: as above
In short: as §1

[9] = tested on: Raji (Burkitt's Lymphoma); assay: as above
In short: as §1

[10] = tested on: SNU-C2B (Colorectal Carcinoma); assay: as above
In short: as §1

[11] = tested on: MM1S (Plasma Cell Myeloma); assay: as above
In short: as §1

[12] = tested on: LS-1034 (Colorectal Carcinoma); assay: as above
In short: as §1

[13] = tested on: DBTRG-05MG (Glioblastoma); assay: as above
In short: as §1

[14] = tested on: NCI-H1876 (Small Cell Lung Carcinoma); assay: as above
In short: as §1

[15] = tested on: SAT (Head and Neck Carcinoma); assay: as above
In short: as §1

[16] = tested on: HT-1080 (Other Solid Carcinomas); assay: as above
In short: as §1

[17] = tested on: SK-N-SH (Neuroblastoma); assay: as above
In short: as §1

[18] = tested on: NCI-H1341 (Small Cell Lung Carcinoma); assay: Bliss excess, mean over the matrix (fraction); higher = more synergy
In short: as §1

[19] = tested on: LCLC-103H (Non-Small Cell Lung Carcinoma); assay: as above
In short: as §1

[20] = tested on: SNU-423 (Hepatocellular Carcinoma); assay: as above
In short: as §1
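For Bliss excess, mean over the matrix in this document: after 72 h of two-drug dosing.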

| SMILES | combination Emax [1] | combination Emax [2] | combination Emax [3] | combination Emax [4] | combination Emax [5] | combination Emax [6] | combination Emax [7] | combination Emax [8] | combination Emax [9] | combination Emax [10] | combination Emax [11] | combination Emax [12] | combination Emax [13] | combination Emax [14] | combination Emax [15] | combination Emax [16] | combination Emax [17] | Bliss excess [18] | Bliss excess [19] | Bliss excess [20] |
| --- | --- | --- | --- | --- | --- | --- | --- | --- | --- | --- | --- | --- | --- | --- | --- | --- | --- | --- | --- | --- |
| COc1nnc2ccc(N3CCC(c4ccc(OCCN5CCN(C)C(=O)[C@H]5C)cc4)CC3)nn12 [AZD5153] + Cc1c2c(nn1C)CSCc1cc(n(C)n1)CSc1cc(c3ccccc3c1)OCCCc1c(C(=O)O)n(C)c3c-2c(Cl)ccc13 [AZD5991] (first compound max 1 µM, 7x7, partner max 1 µM) | 0.632 | 0.897 | 0.768 | 0.666 | 0.644 | 0.751 | 0.666 | 0.23 | 0.896 | 0.568 | 1 | 0.491 | 0.205 | 0.949 | 0.914 | 0.378 | 0.526 | 0.0366 | 0.0179 | -0.0227 |
| C=CCn1c(=O)c2cnc(Nc3ccc(N4CCN(C)CC4)cc3)nc2n1-c1cccc(C(C)(C)O)n1 [AZD1775] + C1CN(CCC1(C(=O)N[C@@H](CCO)C2=CC=C(C=C2)Cl)N)C3=NC=NC4=C3C=CN4 [Capivasertib] (first compound max 3 µM, partner max 3 µM) | 0.695 | 0.923 | 0.734 | 0.593 | 0.996 | 0.948 | 0.505 | 0.785 | 0.977 | 0.702 | 1 | 0.763 | 0.474 | 0.956 | 0.563 | 0.561 | 0.711 | -0.0538 | -0.0462 | -0.0333 |
| Cc1c2c(nn1C)CSCc1cc(n(C)n1)CSc1cc(c3ccccc3c1)OCCCc1c(C(=O)O)n(C)c3c-2c(Cl)ccc13 [AZD5991] + Cc1cc2ncnn2cc1Nc1ncc2c(n1)n(C1CCOCC1)c(=O)n2C [AZD7648] (first compound max 1 µM, 7x7, partner max 10 µM) | 0.272 | 0.509 | 0.133 | 0.264 | 0.416 | 0.245 | 0.255 | 0.0921 | 0.728 | 0.158 | 1 | 0.272 | 0.214 | 0.629 | 0.664 | 0.179 | 0.481 | 0.0192 | -0.0543 | -0.0768 |
| Cc1c2c(nn1C)CSCc1cc(n(C)n1)CSc1cc(c3ccccc3c1)OCCCc1c(C(=O)O)n(C)c3c-2c(Cl)ccc13 [AZD5991] + C=CCn1c(=O)c2cnc(Nc3ccc(N4CCN(C)CC4)cc3)nc2n1-c1cccc(C(C)(C)O)n1 [AZD1775] (first compound max 1 µM, partner max 1 µM) | 0.835 | 0.832 | 0.507 | 0.347 | 0.945 | 0.967 | 0.314 | 0.631 | 0.916 | 0.497 | 0.992 | 0.481 | 0.262 | 0.992 | 0.829 | 0.402 | 0.86 | 0.0185 | 0.0101 | -0.0976 |
| COc1cc2c(cc1OCCCCCOc1cc3c(cc1OC)C(=O)N1C=C(C)C[C@H]1C=N3)N=C[C@@H]1CC(C)=CN1C2=O [SG3199] + O=C(c1cc(Cc2n[nH]c(=O)c3ccccc23)ccc1F)N1CCN(C(=O)C2CC2)CC1 [Olaparib] (first compound max 0.001 µM, 7x7, partner max 10 µM) | 0.127 | 0.193 | 0.111 | 0.245 | 0.189 | 0.243 | 0.0997 | 0.0664 | 0.43 | 0.249 | 0.293 | 0.0272 | 0.114 | 0.7 | 0.17 | 0.12 | 0.274 | -0.0059 | -0.0506 | -0.0238 |
| CN(C)CCCOc1ccc(-c2ccc3ncc4c(c3c2)n(C2CCOCC2)c(=O)n4C)cn1 [AZD0156] + O=C(c1cc(Cc2n[nH]c(=O)c3ccccc23)ccc1F)N1CCN(C(=O)C2CC2)CC1 [Olaparib] (first compound max 3 µM, partner max 3 µM) | 0.227 | 0.306 | 0.358 | 0.284 | 0.419 | 0.396 | 0.261 | 0.353 | 0.482 | 0.239 | 0.881 | 0.293 | 0.152 | 0.807 | 0.133 | 0.134 | 0.292 | -0.0165 | 0.0713 | 0.0634 |
| CC1(C)CCC(CN2CCN(c3ccc(C(=O)NS(=O)(=O)c4ccc(NCC5CCOCC5)c([N+](=O)[O-])c4)c(Oc4cnc5[nH]ccc5c4)c3)CC2)=C(c2ccc(Cl)cc2)C1 [Venetoclax] + CCN(CCO)CCCOc1ccc2c(Nc3cc(CC(=O)Nc4cccc(F)c4)[nH]n3)ncnc2c1 [AZD2811] (first compound max 1 µM, 7x7, partner max 1 µM) | 0.194 | 0.495 | 0.267 | 0.314 | 0.312 | 0.942 | 0.172 | 0.127 | 0.122 | 0.185 | 0.265 | 0.114 | 0.228 | 0.742 | 0.187 | 0.27 | 0.73 | 0.0606 | -0.0756 | -0.0381 |
| CS(=O)(=O)CCNCc1ccc(-c2ccc3ncnc(Nc4ccc(OCc5cccc(F)c5)c(Cl)c4)c3c2)o1 [Lapatinib] + C[C@@H](Oc1cc(-c2cnn(C3CCNCC3)c2)cnc1N)c1c(Cl)ccc(F)c1Cl [Crizotinib] (first compound max 10 µM, 7x7, partner max 10 µM) | 0.548 | 0.898 | 0.928 | 0.75 | 0.921 | 0.845 | 0.252 | 0.856 | 0.76 | 0.753 | 0.962 | 0.946 | 0.332 | 0.934 | 0.981 | 0.823 | 0.899 | 0.0876 | -0.0152 | -0.074 |
| CN(CCO)CC[C@H](CSc1ccccc1)Nc1ccc(S(=O)(=O)NC(=O)c2ccc(N3CCC([C@@H](O)c4ccccc4-c4ccc(Cl)cc4)CC3)cc2)cc1S(=O)(=O)C(F)(F)F [AZD4320] + CN(C)CCCOc1ccc(-c2ccc3ncc4c(c3c2)n(C2CCOCC2)c(=O)n4C)cn1 [AZD0156] (first compound max 1 µM, 7x7, partner max 1 µM) | 0.132 | 0.974 | 0.144 | 0.912 | 0.126 | 0.967 | 0.108 | 0.108 | 0.136 | 0.208 | 0.984 | 0.347 | 0.745 | 0.982 | 0.193 | 0.549 | 0.641 | 0.0517 | -0.0704 | -0.0727 |
| CC1(C)CCC(CN2CCN(c3ccc(C(=O)NS(=O)(=O)c4ccc(NCC5CCOCC5)c([N+](=O)[O-])c4)c(Oc4cnc5[nH]ccc5c4)c3)CC2)=C(c2ccc(Cl)cc2)C1 [Venetoclax] + C=CCn1c(=O)c2cnc(Nc3ccc(N4CCN(C)CC4)cc3)nc2n1-c1cccc(C(C)(C)O)n1 [AZD1775] (first compound max 1 µM, partner max 1 µM) | 0.63 | 0.808 | 0.502 | 0.233 | 0.961 | 0.964 | 0.223 | 0.577 | 0.725 | 0.609 | 0.908 | 0.56 | 0.241 | 0.994 | 0.545 | 0.349 | 0.889 | 0.101 | -0.0136 | -0.0472 |
| CC(=O)c1c(C)c2cnc(Nc3ccc(N4CCNCC4)cn3)nc2n(C2CCCC2)c1=O [Palbociclib] + Cn1cnc2c(F)c(Nc3ccc(Br)cc3Cl)c(C(=O)NOCCO)cc21 [Selumetinib] (first compound max 10 µM, 7x7, partner max 10 µM) | 0.185 | 0.254 | 0.864 | 0.344 | 0.457 | 0.14 | 0.16 | 0.33 | 0.453 | 0.303 | 0.253 | 0.817 | 0.338 | 0.312 | 0.549 | 0.361 | 0.371 | -0.0199 | 0.0012 | -0.0141 |
| Cc1cc2ncnn2cc1Nc1ncc2c(n1)n(C1CCOCC1)c(=O)n2C [AZD7648] + C=CCn1c(=O)c2cnc(Nc3ccc(N4CCN(C)CC4)cc3)nc2n1-c1cccc(C(C)(C)O)n1 [AZD1775] (first compound max 10 µM, partner max 1 µM) | 0.411 | 0.69 | 0.638 | 0.401 | 0.93 | 0.931 | 0.308 | 0.45 | 0.755 | 0.551 | 0.811 | 0.379 | 0.343 | 0.976 | 0.623 | 0.405 | 0.884 | -0.0476 | 0.002 | -0.0257 |
| NC1(C(=O)N[C@@H](CCO)c2ccc(Cl)cc2)CCN(c2ncnc3[nH]ccc23)CC1 [Capivasertib] + Cn1cnc2c(F)c(Nc3ccc(Br)cc3Cl)c(C(=O)NOCCO)cc21 [Selumetinib] (first compound max 10 µM, 7x7, partner max 10 µM) | 0.317 | 0.728 | 0.8 | 0.268 | 0.803 | 0.332 | 0.233 | 0.539 | 0.192 | 0.388 | 1 | 0.657 | 0.431 | 0.239 | 0.677 | 0.466 | 0.333 | 0.0605 | -0.0267 | 0.0248 |
